According to article PMC12073189, “Synthesis and Evaluation of a Novel Zuranolone Analog with High GABAA Receptor PAM Activity and Excellent Pharmacokinetic Profiles” (Molecules, 2025):
Where two headings read alike, the source gives them in different places.

Key:
α4β3δ GABAA receptor = biological target: T1, α4β3δ GABAA receptor (Homo sapiens, UniProt P28472+P48169); assay: Whole-cell electrophysiology of GABA-evoked currents, CHO cells; assay type: cell-based
T1 construct: expressed in transfected cells; host or cells: CHO cells (transient expression)
Experimental: The α1β2γ2 and α4β3δ GABAA receptor subtypes, representing synaptic and extrasynaptic subunit compositions in neurons, are widely utilized for screening new NAS drugs. In this study, a preliminary SAR study was conducted on a series of Zuranolone analogs using the LogP values predicted by ADMETlab3.0 software, recombinant human GABAA receptor cell lines, and in vitro liver microsome stability assays. The results are summarized in Table 1, Table 2, and Table 3, respectively.
The effects of Zuranolone and synthetic analogs on GABA-evoked currents were assessed in LTK cells stably expressing α1β2γ2 GABAA receptor subunits (n = 3) or CHO cells transiently expressing α4β3δ receptors (n = 3). Whole-cell mode recordings were conducted using the HEKA EPC-10 amplifier and analyzed with PatchMaster software (version 2x90, HEKA Elektronik, Lambrecht, Germany). High-throughput whole-cell recordings were performed using the Q-Patch method from Sophion. Test substances were dissolved in DMSO (dimethyl sulfoxide) to prepare 10 mmol/L stock solutions, then diluted with perfusion bath solution to concentrations ranging from 0.01 to 10 μmol/L. In this experiment, the effects of Zuranolone and its synthetic analogs on GABA-induced currents were examined in the presence of a submaximal agonist concentration at 1 μmol/L GABA (EC20). Cells were pre-incubated with increasing doses of test substances for 30 s, followed by 2 s of GABA stimulation, and currents were recorded. The maximum efficacy (Emax) of the GABAA receptor is expressed with the current induced by 1 μmol/L GABA taken as 100%, and the percentage after treatment with the test compound is calculated. The EC50 values are determined by fitting the three concentration–response curves recorded from three cells.

[1] = tested on: PTZ-induced acute seizures; assay: Pentylenetetrazole (PTZ)-induced seizure test; assay type: in vivo, rat; conditions: rats; for latency to tonic seizures: n = 6; for effect on seizure incidence: oral 6, 12, 24 μmol/kg, PTZ 50 mg/kg
Experimental: PTZ can trigger dose-dependent tonic seizures through its antagonistic effects on GABAA receptor function. To evaluate target engagement at GABAA receptors, Zuranolone and S9 were tested in a PTZ-induced acute seizure model in rats, which is widely used to assess GABAergic activity. Based on their pharmacokinetic study results, S9 or Zuranolone was administered orally at the same doses (6, 12, and 24 μmol/kg) 1 h prior to PTZ challenge.
We randomly divided rats into 7 groups (n = 6): three same-dose groups for both Zuranolone and S9 (6, 12, 24 μmol/kg) and a vehicle control group (30% SBECD). PTZ can selectively antagonize the GABAA receptors at a dose below 60 mg/kg, while higher doses lead to non-competitive antagonism of GABAA receptors and activation of NMDA receptors. Thus, a dose of 50 mg/kg was applied in this experiment. After intragastric administration of the test drugs or vehicle for 1 h, the animals were injected intraperitoneally with PTZ saline solution at 50 mg/kg. The rats were then placed in observation chambers to monitor the latency of clonic seizures (seizures lasting ≥3 s with LORR) and tonic seizures (the rigid extension of limbs, forming an angle of more than 90° with the body plane) within 1 h.

loss of righting reflex = assay: Loss of righting reflex (LORR) test; assay type: in vivo, rat; conditions: rats; for LORR threshold dose: intragastric
Experimental: We randomly assigned rats into 6 groups (n = 10): Zuranolone groups at doses of 9.8, 15.6, and 19.5 μmol/kg and S9 groups at doses of 38.9, 48.6, and 58.3 μmol/kg. The number of animals showing LORR, defined as the inability to turn over within 30 s while in the supine position, was recorded within 4 h following intragastric administration of the test drugs or vehicle.

CYP3A4 = biological target: T2, CYP3A4 (Homo sapiens, UniProt P08684); assay: Human liver CYP inhibition assay (cocktail, pooled HLM); assay type: in vitro ADME
T2 construct: tissue XenoTech; host or cells: pooled human liver microsomes
Experimental: (§1) The main materials used in this experiment were sourced as follows: Zuranolone from BEIWANTABIO Co., Ltd. (Shanghai, China); liver microsomes (rat and human) and CYP isoenzymes (CYP1A2, CYP2C8, CYP2D6, CYP3A4) from XenoTech (Tewksbury, MA, USA); LTK cells from the China Center for Type Culture Collection (CCTCC, Wuhan, China); and CHO cells from the National Certified Cell Bank (Shanghai, China).
(§2) The IC50 values of S9 and Zuranolone on CYP isoenzymes (1A2, 2C8, 2D6, 3A4) were determined in pooled HLM using a cocktail approach, as previously reported.

CYP2C8 = biological target: T3, CYP2C8 (Homo sapiens, UniProt P10632); assay: as above; assay type: in vitro ADME
T3 construct: tissue XenoTech; host or cells: pooled human liver microsomes
T3 sequence (P10632 1-490): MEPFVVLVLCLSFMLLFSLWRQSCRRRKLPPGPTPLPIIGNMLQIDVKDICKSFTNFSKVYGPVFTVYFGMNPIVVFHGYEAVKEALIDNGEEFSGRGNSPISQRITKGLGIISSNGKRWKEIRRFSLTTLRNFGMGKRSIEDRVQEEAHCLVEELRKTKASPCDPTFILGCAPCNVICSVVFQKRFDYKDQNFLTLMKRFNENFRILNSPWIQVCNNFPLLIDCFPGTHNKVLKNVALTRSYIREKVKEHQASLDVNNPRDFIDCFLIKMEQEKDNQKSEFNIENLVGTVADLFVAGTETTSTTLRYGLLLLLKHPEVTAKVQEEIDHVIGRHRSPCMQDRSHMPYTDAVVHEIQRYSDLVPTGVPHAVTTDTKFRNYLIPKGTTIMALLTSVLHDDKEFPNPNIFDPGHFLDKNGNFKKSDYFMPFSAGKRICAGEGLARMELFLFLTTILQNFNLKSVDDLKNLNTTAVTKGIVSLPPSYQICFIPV
Experimental: as §1, §2

CYP2D6 = biological target: T4, CYP2D6 (Homo sapiens, UniProt P10635); assay: as above; assay type: in vitro ADME
T4 construct: tissue XenoTech; host or cells: pooled human liver microsomes
Experimental: as §1, §2

T1 sequence (P48169 36-554): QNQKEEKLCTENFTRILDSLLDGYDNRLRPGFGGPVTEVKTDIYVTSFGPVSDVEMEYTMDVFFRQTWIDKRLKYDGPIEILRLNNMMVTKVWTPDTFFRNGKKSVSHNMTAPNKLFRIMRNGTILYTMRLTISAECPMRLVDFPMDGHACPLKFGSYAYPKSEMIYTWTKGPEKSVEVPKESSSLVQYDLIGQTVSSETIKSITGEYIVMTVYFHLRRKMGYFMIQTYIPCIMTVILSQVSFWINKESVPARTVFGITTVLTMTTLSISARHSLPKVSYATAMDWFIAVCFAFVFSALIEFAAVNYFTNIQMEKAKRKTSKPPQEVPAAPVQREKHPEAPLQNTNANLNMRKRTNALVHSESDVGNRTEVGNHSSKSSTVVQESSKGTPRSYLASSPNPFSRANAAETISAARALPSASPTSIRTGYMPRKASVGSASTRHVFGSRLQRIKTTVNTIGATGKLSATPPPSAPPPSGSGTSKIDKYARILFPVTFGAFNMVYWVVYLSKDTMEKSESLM
T1 sequence (P28472 26-473): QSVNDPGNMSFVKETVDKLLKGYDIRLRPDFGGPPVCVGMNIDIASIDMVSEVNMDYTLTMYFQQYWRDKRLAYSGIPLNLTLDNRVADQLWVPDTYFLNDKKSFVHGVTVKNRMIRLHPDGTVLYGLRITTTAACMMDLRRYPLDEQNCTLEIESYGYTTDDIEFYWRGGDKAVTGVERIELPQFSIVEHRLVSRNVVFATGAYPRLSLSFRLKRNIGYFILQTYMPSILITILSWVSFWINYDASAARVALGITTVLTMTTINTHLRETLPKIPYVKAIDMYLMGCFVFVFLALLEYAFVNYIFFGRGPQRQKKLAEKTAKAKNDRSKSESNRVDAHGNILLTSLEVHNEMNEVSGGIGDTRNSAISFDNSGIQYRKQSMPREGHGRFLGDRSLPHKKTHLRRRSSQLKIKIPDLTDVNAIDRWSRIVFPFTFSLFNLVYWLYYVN
T1 sequence (O14764 25-452 partner): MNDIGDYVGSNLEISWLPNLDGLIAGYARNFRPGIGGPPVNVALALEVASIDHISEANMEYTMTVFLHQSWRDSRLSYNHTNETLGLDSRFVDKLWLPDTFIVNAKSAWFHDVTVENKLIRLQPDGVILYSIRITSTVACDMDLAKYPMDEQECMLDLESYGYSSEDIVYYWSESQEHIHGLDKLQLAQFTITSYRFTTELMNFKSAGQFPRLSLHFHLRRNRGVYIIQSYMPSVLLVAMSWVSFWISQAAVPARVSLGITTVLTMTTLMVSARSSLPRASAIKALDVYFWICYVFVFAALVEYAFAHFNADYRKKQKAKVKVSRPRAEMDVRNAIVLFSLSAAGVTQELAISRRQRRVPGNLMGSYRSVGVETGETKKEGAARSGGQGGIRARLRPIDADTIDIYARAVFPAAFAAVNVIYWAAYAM
T4 sequence (P10635 whole entry): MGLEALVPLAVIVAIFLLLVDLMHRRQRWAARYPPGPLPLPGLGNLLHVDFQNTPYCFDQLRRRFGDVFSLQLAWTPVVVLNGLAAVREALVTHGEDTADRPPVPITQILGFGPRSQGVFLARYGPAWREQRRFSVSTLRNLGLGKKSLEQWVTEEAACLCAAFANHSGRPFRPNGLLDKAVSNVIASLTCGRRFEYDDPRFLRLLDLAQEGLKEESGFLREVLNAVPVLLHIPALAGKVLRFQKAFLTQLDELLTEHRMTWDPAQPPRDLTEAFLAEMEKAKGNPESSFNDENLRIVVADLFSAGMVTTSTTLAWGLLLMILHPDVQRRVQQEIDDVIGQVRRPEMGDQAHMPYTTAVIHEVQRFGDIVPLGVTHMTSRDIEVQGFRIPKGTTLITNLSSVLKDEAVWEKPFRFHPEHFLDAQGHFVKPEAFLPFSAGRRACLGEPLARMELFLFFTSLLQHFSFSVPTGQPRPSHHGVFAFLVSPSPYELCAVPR
T2 sequence (P08684 whole entry): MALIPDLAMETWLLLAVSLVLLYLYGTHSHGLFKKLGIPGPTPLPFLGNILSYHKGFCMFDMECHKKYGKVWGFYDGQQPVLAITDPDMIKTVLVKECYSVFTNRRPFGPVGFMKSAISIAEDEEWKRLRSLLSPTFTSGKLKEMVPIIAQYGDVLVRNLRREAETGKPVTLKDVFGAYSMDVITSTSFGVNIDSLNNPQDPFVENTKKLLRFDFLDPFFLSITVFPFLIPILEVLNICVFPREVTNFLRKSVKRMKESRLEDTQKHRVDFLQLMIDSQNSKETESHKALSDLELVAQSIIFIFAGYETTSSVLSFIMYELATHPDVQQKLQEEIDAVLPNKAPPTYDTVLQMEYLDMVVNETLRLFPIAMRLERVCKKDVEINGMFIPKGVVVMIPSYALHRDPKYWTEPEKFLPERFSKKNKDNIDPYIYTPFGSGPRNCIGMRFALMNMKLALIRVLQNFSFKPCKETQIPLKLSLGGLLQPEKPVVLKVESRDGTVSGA

Compound	EC50 (α4β3δ GABAA receptor) [µM]	latency to tonic seizures ([1]; oral 12 μmol/kg 1 h before PTZ 50 mg/kg i.p.) [s]	latency to tonic seizures ([1]; oral 24 μmol/kg 1 h before PTZ 50 mg/kg i.p.) [s]	effect on seizure incidence [1]	Latency to LORR (loss of righting reflex; i.g. 15.6 μmol/kg) [min]	Latency to LORR (loss of righting reflex; i.g. 19.5 μmol/kg) [min]	LORR threshold dose (loss of righting reflex) [µmol/kg]	IC50 (CYP3A4) [µM]	IC50 (CYP2C8) [µM]	IC50 (CYP2D6) [µM]	EC50 (α4β3δ GABAA receptor; CHO cells, 1 μmol/L GABA (EC20), n = 3, read-out: α4β3δ EC50) [µM]	Emax (α4β3δ GABAA receptor; CHO cells, current induced by 1 μmol/L GABA = 100%, n = 3) [%]	efficacy as % of that of Zuranolone (α4β3δ GABAA receptor; extrasynaptic GABAA receptors) [%]	potency as % of that of Zuranolone (α4β3δ GABAA receptor; extrasynaptic GABAA receptors) [%]	Latency to LORR (loss of righting reflex; i.g. 48.6 μmol/kg) [min]	Latency to LORR (loss of righting reflex; i.g. 58.3 μmol/kg) [min]	IC50 (CYP3A4; human liver CYP isoenzymes, pooled HLM, read-out: CYP IC50: 3A4) [µM]	IC50 (CYP2C8; human liver CYP isoenzymes, pooled HLM, read-out: CYP IC50: 2C8) [µM]	IC50 (CYP2D6; human liver CYP isoenzymes, pooled HLM, read-out: CYP IC50: 2D6) [µM]
C[C@@]1(O)CC[C@H]2[C@H](CC[C@@H]3[C@@H]2CC[C@]2(C)[C@@H](C(=O)Cn4cc(C#N)cn4)CC[C@@H]32)C1 [Zuranolone]	0.093 ± 0.01	1748.0 ± 555.0	2995.0 ± 430.6	neither compound significantly affected seizure incidence	35	30	9.8	> 30	> 30	> 30									
C[C@@]1(O)CC[C@H]2[C@H](CC[C@@H]3[C@@H]2CC[C@]2(C)[C@@H](C(=O)Cn4cnn(-c5ccnc(OCC(F)(F)F)c5)c4=O)CC[C@@H]32)C1 [S9]				neither compound significantly affected seizure incidence			38.9				0.034 ± 0.01	967 ± 118	71	270	68	59	> 30	> 30	> 30
